According to patent US6737383B1, “Herbicidal oxadiazolidines” (priority 1999, dated 2004):

Tests used:
corn = assay: Test B pre/postemergence corn; type: in vivo, Zea mays
Method in brief: (§1)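 Test chemicals in a non-phytotoxic solvent mixture with surfactant were sprayed preemergence onto planted seeds and postemergence onto plants 2 to 18 cm tall (1- to 4-leaf stage). After twelve to sixteen days in a greenhouse, injury was visually rated against untreated controls from 0 (no effect) to 10 (complete control).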

rice = assay: Test B flood test rice; type: in vivo, Oryza sativa
Experimental: At the same time, these crop and weed species were also treated with postemergence applications of test chemicals formulated in the same manner. Plants ranged in height from 2 to 18 cm (1- to 4-leaf stage) for postemergence treatments. Plant species in the flood test consisted of rice (Oryza sativa), smallflower flatsedge (Cyperus difformis), duck salad (Heteranthera limosa) and bamyardgrass (Echinochloa crus-galli) grown to the 2-leaf stage for testing. Treated plants and controls were maintained in a greenhouse for twelve to sixteen days, after which all species were compared to controls and visually evaluated. Plant response ratings, summarized in Table B, are based on a scale of 0 to 10 where 0 is no effect and 10 is complete control. A dash (−) response means no test result.

smallflower flatsedge = assay: Test B flood test smallflower flatsedge; type: in vivo, Cyperus difformis
Method in brief: (§2)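 Plants were grown to the 2-leaf stage before treatment with test chemical, then held in a greenhouse for twelve to sixteen days. Injury was visually rated against untreated controls on a 0–10 scale, where 0 is no effect and 10 is complete control.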

duck salad = assay: Test B flood test duck salad; type: in vivo, Heteranthera limosa
Method in brief: as §2

bamyardgrass = assay: Test B flood test barnyardgrass; type: in vivo, Echinochloa crus-galli
Method in brief: as §2

bedstraw = assay: Test B pre/postemergence bedstraw; type: in vivo, Galium aparine; conditions: Preemergence
Method in brief: as §1

blackgrass = assay: Test B pre/postemergence blackgrass; type: in vivo, Alopecurus myosuroides; conditions: Preemergence
Method in brief: as §1

surinam grass = assay: Test B pre/postemergence surinam grass; type: in vivo, Brachiaria decumbens; conditions: Preemergence
Method in brief: as §1

cocklebur = assay: Test B pre/postemergence cocklebur; type: in vivo, Xanthium strumarium; conditions: Preemergence
Method in brief: as §1

crabgrass = assay: Test B pre/postemergence crabgrass; type: in vivo, Digitaria sanguinalis; conditions: Preemergence
Method in brief: as §1

giant foxtail = assay: Test B pre/postemergence giant foxtail; type: in vivo, Setaria faberii; conditions: Preemergence, scale of 0 to 10 where 0 is no effect and 10 is complete control
Method in brief: as §1

morningglory = assay: Test B pre/postemergence morningglory; type: in vivo, Ipomoea hederacea; conditions: Preemergence, scale of 0 to 10 where 0 is no effect and 10 is complete control
Method in brief: as §1

pigweed = assay: Test B pre/postemergence pigweed; type: in vivo, Amaranthus retroflexus; conditions: Preemergence, scale of 0 to 10 where 0 is no effect and 10 is complete control
Method in brief: as §1

rape = assay: Test B pre/postemergence rape; type: in vivo, Brassica napus; conditions: Preemergence, scale of 0 to 10 where 0 is no effect and 10 is complete control
Method in brief: as §1

soybean = assay: Test B pre/postemergence soybean; type: in vivo, Glycine max; conditions: Preemergence, scale of 0 to 10 where 0 is no effect and 10 is complete control
Method in brief: as §1

sugar beet = assay: Test B pre/postemergence sugar beet; type: in vivo, Beta vulgaris; conditions: Preemergence, scale of 0 to 10 where 0 is no effect and 10 is complete control
Method in brief: as §1

velvetleaf = assay: Test B pre/postemergence velvetleaf; type: in vivo, Abutilon theophrasti; conditions: Preemergence, scale of 0 to 10 where 0 is no effect and 10 is complete control
Method in brief: as §1

wheat = assay: Test B pre/postemergence wheat; type: in vivo, Triticum aestivum; conditions: Preemergence, scale of 0 to 10 where 0 is no effect and 10 is complete control
Method in brief: as §1

wild oat = assay: Test B pre/postemergence wild oat; type: in vivo, Avena fatua; conditions: Preemergence, scale of 0 to 10 where 0 is no effect and 10 is complete control
Method in brief: as §1

purple nutsedge = assay: Test B pre/postemergence purple nutsedge; type: in vivo, Cyperus rotundus; conditions: Preemergence, Rate 62 g/ha; scale of 0 to 10 where 0 is no effect and 10 is complete control
Method in brief: as §1

[1] = Postemergence, Rate 62 g/ha, scale 0 to 10, 0 is no effect, 10 is complete control
[2] = Rate 125 g/ha, Postemergence section (flood test species), scale 0 to 10, 0 no effect, 10 complete control
[3] = Rate 500 g/ha, listed under Postemergence (flood test species), scale 0 to 10, 0 no effect, 10 complete control
[4] = flood test, listed under Postemergence, Rate 250 g/ha, scale 0 to 10, 0 no effect, 10 complete control
[5] = Rate 62 g/ha, scale of 0 to 10 where 0 is no effect and 10 is complete control
[6] = Rate 125 g/ha, scale of 0 to 10 where 0 is no effect and 10 is complete control
[7] = Rate 250 g/ha, scale 0 to 10 (0 no effect, 10 complete control)
[8] = Rate 500 g/ha, scale of 0 to 10 where 0 is no effect and 10 is complete control
[9] = Rate 62 g/ha, flood test species, Pre-emergence, visual evaluation after twelve to sixteen days
[10] = Rate 125 g/ha, under heading Pre-emergence, flood test species, visual evaluation after twelve to sixteen days
[11] = Rate 250 g/ha, Pre-emergence (flood test species), scale 0 to 10, 0 is no effect, 10 is complete control
[12] = Rate 500 g/ha, Pre-emergence section of Table B, 0 to 10 scale (0 no effect, 10 complete control)

SMILES: Cc1ccccc1-n1c(=O)on(C(=O)N(c2ccc(F)cc2F)C2CC2)c1=O [Compound 50]
- Corn plant response rating (corn; Rate 125 g/ha, Postemergence, scale 0 to 10, 0 no effect, 10 complete control): 0
- Rice plant response rating (rice; [1]): 0
- Rice plant response rating (rice; [2]): 0
- Rice plant response rating (rice; [3]): 0
- Rice plant response rating (rice; [4]): 0
- S. Flatsedge plant response rating (smallflower flatsedge; [1]): 0
- S. Flatsedge plant response rating (smallflower flatsedge; [2]): 0
- S. Flatsedge plant response rating (smallflower flatsedge; [3]): 0
- S. Flatsedge plant response rating (smallflower flatsedge; [4]): 0
- Ducksalad plant response rating (duck salad; [1]): 0
- Ducksalad plant response rating (duck salad; [2]): 0
- Ducksalad plant response rating (duck salad; [3]): 0
- Ducksalad plant response rating (duck salad; [4]): 0
- Barnyardgrass plant response rating (bamyardgrass; [1]): 0
- Barnyardgrass plant response rating (bamyardgrass; [2]): 0
- Barnyardgrass plant response rating (bamyardgrass; [3]): 0
- Barnyardgrass plant response rating (bamyardgrass; [4]): 0

SMILES: CC(C)N(C(=O)n1oc(=O)n(C(C)C2CCC2)c1=O)c1ccc(Cl)cc1 (stereo not shown) [Compound 701]
- Bedstraw plant response rating (bedstraw; [5]): 0
- Plant response rating, Bedstraw (bedstraw; [6]): 0
- Plant response rating, Bedstraw (bedstraw; [7]): 0
- Plant response rating, Bedstraw (bedstraw; [8]): 0
- Blackgrass plant response rating (blackgrass; [5]): 0
- Plant response rating, Blackgrass (blackgrass; [6]): 2
- Plant response rating, Blackgrass (blackgrass; [7]): 2
- Plant response rating, Blackgrass (blackgrass; [8]): 6
- B. signalgrass plant response rating (surinam grass; [5]): 0
- Plant response rating, B. signalgrass (surinam grass; [6]): 0
- Plant response rating, B. signalgrass (surinam grass; [7]): 0
- Plant response rating, B. signalgrass (surinam grass; [8]): 0
- Cocklebur plant response rating (cocklebur; [5]): 0
- Plant response rating, Cocklebur (cocklebur; [6]): 0
- Plant response rating, Cocklebur (cocklebur; [7]): 0
- Plant response rating, Cocklebur (cocklebur; [8]): 0
- Corn plant response rating (corn; Preemergence, Rate 62 g/ha, scale of 0 to 10 where 0 is no effect and 10 is complete control): 0
- Plant response rating, Corn (corn; Preemergence, Rate 125 g/ha, scale of 0 to 10 where 0 is no effect and 10 is complete control): 0
- Plant response rating, Corn (corn; Preemergence, Rate 250 g/ha, scale 0 to 10 (0 no effect, 10 complete control)): 0
- Crabgrass plant response rating (crabgrass; [5]): 0
- Plant response rating, Crabgrass (crabgrass; [6]): 10
- Plant response rating, Crabgrass (crabgrass; [7]): 10
- Giant foxtail plant response rating (giant foxtail; Rate 62 g/ha): 6
- Plant response rating, Giant foxtail (giant foxtail; Rate 125 g/ha): 10
- Morningglory plant response rating (morningglory; Rate 62 g/ha): 0
- Plant response rating, Morningglory (morningglory; Rate 125 g/ha): 0
- Redroot pigweed plant response rating (pigweed; Rate 62 g/ha): 0
- Plant response rating, Redroot pigweed (pigweed; Rate 125 g/ha): 0
- Rape plant response rating (rape; Rate 62 g/ha): 0
- Plant response rating, Rape (rape; Rate 125 g/ha): 0
- Soybean plant response rating (soybean; Rate 62 g/ha): 0
- Plant response rating, Soybean (soybean; Rate 125 g/ha): 0
- Sugarbeets plant response rating (sugar beet; Rate 62 g/ha): 0
- Plant response rating, Sugarbeets (sugar beet; Rate 125 g/ha): 0
- Velvetleaf plant response rating (velvetleaf; Rate 62 g/ha): 0
- Plant response rating, Velvetleaf (velvetleaf; Rate 125 g/ha): 0
- Wheat plant response rating (wheat; Rate 62 g/ha): 0
- Plant response rating, Wheat (wheat; Rate 125 g/ha): 0
- Wild oats plant response rating (wild oat; Rate 62 g/ha): 0
- Plant response rating, Wild oats (wild oat; Rate 125 g/ha): 0
- Nutsedge plant response rating (purple nutsedge): 0
- Plant response rating, S. Flatsedge (0 to 10 scale, 0 is no effect, 10 is complete control) (smallflower flatsedge; [9]): 0
- S. Flatsedge plant response rating (0 to 10 scale, 0 is no effect, 10 is complete control) (smallflower flatsedge; [10]): 0
- S. Flatsedge plant response rating (smallflower flatsedge; [11]): 0
- S. Flatsedge plant response rating (smallflower flatsedge; [12]): 0
- Plant response rating, Ducksalad (0 to 10 scale, 0 is no effect, 10 is complete control) (duck salad; [9]): 0
- Ducksalad plant response rating (0 to 10 scale, 0 is no effect, 10 is complete control) (duck salad; [10]): 0
- Ducksalad plant response rating (duck salad; [11]): 0
- Ducksalad plant response rating (duck salad; [12]): 3
- Plant response rating, Barnyardgrass (0 to 10 scale, 0 is no effect, 10 is complete control) (bamyardgrass; [9]): 0
- Barnyardgrass plant response rating (0 to 10 scale, 0 is no effect, 10 is complete control) (bamyardgrass; [10]): 0
- Barnyardgrass plant response rating (bamyardgrass; [11]): 0
- Barnyardgrass plant response rating (bamyardgrass; [12]): 0
